Test results from the supplement of paper PMC10307832.

Assays:
Experiment in all cases: relative viability (nuclei count vs DMSO), 5 days (fraction); higher = more cells survive
RU-SKI 43 + Lapatinib = compound: CC[C@@H](C)CNCC(=O)N1CCC2=C([C@@H]1COC3=CC=CC(=C3)C)C=CS2 [RU-SKI 43] + CS(=O)(=O)CCNCc1ccc(-c2ccc3ncnc(Nc4ccc(OCc5cccc(F)c5)c(Cl)c4)c3c2)o1 [Lapatinib] (partner 2 µM)
How it was run: (§1)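 Five library-drug doses in √10 steps were combined with a fixed anchor-drug dose, or a single drug was given alone, by pin tool to lung cancer cell lines in 1536-well plates the day after seeding. Nuclei were stained and counted after 5 days. Relative viability is the nuclei count in treated wells over that in vehicle wells, taken as the median of duplicate plates.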

RU-SKI 43 + Pictilisib = compound: CC[C@@H](C)CNCC(=O)N1CCC2=C([C@@H]1COC3=CC=CC(=C3)C)C=CS2 [RU-SKI 43] + CS(=O)(=O)N1CCN(Cc2cc3nc(-c4cccc5[nH]ncc45)nc(N4CCOCC4)c3s2)CC1 [Pictilisib] (partner 1 µM)
How it was run: as §1

RU-SKI 43 + Dasatinib = compound: CC[C@@H](C)CNCC(=O)N1CCC2=C([C@@H]1COC3=CC=CC(=C3)C)C=CS2 [RU-SKI 43] + Cc1nc(Nc2ncc(C(=O)Nc3c(C)cccc3Cl)s2)cc(N2CCN(CCO)CC2)n1 [Dasatinib] (partner 0.075 µM)
How it was run: as §1

Irinotecan + Trametinib = compound: CCc1c2c(nc3ccc(OC(=O)N4CCC(N5CCCCC5)CC4)cc13)-c1cc3c(c(=O)n1C2)COC(=O)[C@]3(O)CC [Irinotecan] + CC(=O)Nc1cccc(-n2c(=O)n(C3CC3)c(=O)c3c(Nc4ccc(I)cc4F)n(C)c(=O)c(C)c32)c1 [Trametinib] (partner 0.02 µM)
How it was run: as §1

UMC-11
relative viability (RU-SKI 43 + Lapatinib; first compound 0.1 µM): 1.05
relative viability (RU-SKI 43 + Lapatinib; first compound 0.3162 µM): 1.01
relative viability (RU-SKI 43 + Lapatinib; first compound 1 µM): 1.48
relative viability (RU-SKI 43 + Lapatinib; first compound 3.162 µM): 0.918
relative viability (RU-SKI 43 + Lapatinib; first compound 10 µM): 0.764
relative viability (RU-SKI 43 + Pictilisib; first compound 0.1 µM): 0.958
relative viability (RU-SKI 43 + Pictilisib; first compound 0.3162 µM): 1.11
relative viability (RU-SKI 43 + Pictilisib; first compound 1 µM): 0.876
relative viability (RU-SKI 43 + Pictilisib; first compound 3.162 µM): 0.789
relative viability (RU-SKI 43 + Pictilisib; first compound 10 µM): 0.695
relative viability (RU-SKI 43 + Dasatinib; first compound 0.1 µM): 0.526
relative viability (RU-SKI 43 + Dasatinib; first compound 0.3162 µM): 0.685
relative viability (RU-SKI 43 + Dasatinib; first compound 1 µM): 0.577
relative viability (RU-SKI 43 + Dasatinib; first compound 3.162 µM): 0.516
relative viability (RU-SKI 43 + Dasatinib; first compound 10 µM): 0.471
relative viability (Irinotecan + Trametinib; first compound 0.6325 µM): 0.32
relative viability (Irinotecan + Trametinib; first compound 2 µM): 0.539
relative viability (Irinotecan + Trametinib; first compound 6.325 µM): 0.29
relative viability (Irinotecan + Trametinib; first compound 20 µM): 0.216
